Laboratory results taken from patent publication US20260102387A1, “IMMUNOSUPPRESSIVE COMPOUNDS” (UNIVERSITÄT BASEL, priority 2022, published 2026).
Read-outs that look alike come from different tables or passages of the source.

Columns and labels:
[1] = test system: early cytomegalovirus promoter; test: Screening assay control: CMV promoter driven RFP in RBL cells (microplate reader); type: cell-based; conditions: 48 h
Experimental: As an unrelated promoter, the early cytomegaloviral promoter element was cloned into a promoterless Red Fluorescence Protein (RFP) expression plasmid. Rat Basophil Leukemia (RBL) cells were transfected with the plasmid, stable RFP expressing cells enriched, incubated with various compounds and were assessed for red fluorescence values. Analyzing the inhibition of an unrelated promoter (in this case, early cytomegalovirus promoter) that drove Red Fluorescence Protein (RFP) expression assessed non-specificity of the compound under analysis.
(§1) The plasmids were independently transfected into immune cells (Rat basophil Leukemia, RBL cells) to generate green and red fluorescent RBL cells that were subsequently enriched by means of flow cytometry. These cells were then mixed in equal ratio (1:1) and incubated in a 96 well plate at 100,000 cells/well in a volume of 200 μl of phenol red free RPMI supplemented with 8% fetal calf serum, L-glutamate and antibiotics (penicillin, streptomycin) and various compounds (3 and 5 μg/ml concentrations) from available chemical libraries. At defined time points (8 h, 24 h and 48 h), the GFP and RFP fluorescence was measured using a 96 well microplate reader (Synergy, BioTek Instruments). […] Selected compounds show different levels of modulation of coronin 1 promoter driven GFP and CMV promoter driven RFP fluorescence. GFP and RFP fluorescence were analyzed with a microplate reader upon incubation with the top coronin 1 promoter inhibiting compounds. Shown are percentage of GFP reduction (left column) and percentage of RFP reduction (right column) for the compounds at 5 μg/ml concentration at 48 h. Cycloheximide (CHX) serves as positive control whereas media and DMSO serve as negative controls. […] Cells were imaged using a fluorescence microscope to validate fluorescence inhibition (FIG. 3A) and as well assess morphology and viability (in addition to GFP down regulation confirmation). In addition, quantitative Polymerase Chain Reaction (qPCR) for coronin 1 mRNA transcripts reveal reduction with compound 11 (FIG. 3B). The primers used for the qPCR on RBL cells are listed below as follows;

coronin 1 promoter [2] = test: Fluorescence-based screening assay: coronin 1 promoter driven GFP in RBL cells (microplate reader / microscopy); type: cell-based; conditions: RBL, 48 h, read-out: GFP values (%)
Experimental: The murine coronin 1 promoter sequences of SEQ ID NO: 1-6 were each cloned into a plasmid lacking a promoter (promoterless) but containing a destabilized Green Fluorescence Protein (GFP) cassette. Rat Basophil Leukemia (RBL) cells were transfected with the plasmids, stable GFP expressing cells were enriched, incubated with various compounds and assessed for coronin 1 promoter inhibition by assessing green fluorescence values (FIG. 2).
as §1, with “[…])” for “streptomycin) and various compounds (3 and 5 μg/ml concentrations)”

coronin 1 promoter [3] = test: EC50 analysis for coronin 1 promoter driven GFP inhibition by flow cytometry in RBL cells; type: cell-based; conditions: RBL, RBL cells, 48-65 h, flow cytometry
Experimental: RBL cells that had been incubated with the indicated calcium channel blockers (amlodipine (3.125 μM) and verapamil (8 μM) concentrations for 48 h were analyzed by flow cytometry for any alteration in coronin 1 promoter driven GFP fluorescence. The results reveal no effect of calcium channel blockers on coronin 1 promoter activity (FIG. 4).
(§2) RBL cells expressing GFP under coronin 1 promoter and optionally with RBL cells expressing RFP under CMV promoter were mixed in equal numbers and incubated with the compounds at indicated concentrations for 48-65 h and analyzed by flow cytometry for alteration in coronin 1 promoter (GFP fluorescence), CMV promoter (RFP fluorescence) values. In addition, the cells were labelled with live-dead marker for assessing cell viability status by flow cytometry. Cycloheximide (CHX) serves as positive control and DMSO serves as negative controls. Effective Concentration (EC50) values for coronin 1 promoter inhibition via GFP fluorescence analysis, non-specific promoter inhibition via CMV promoter driven-RFP fluorescence analysis and cell viability via live/dead staining as a measure for toxicity in flow cytometry for compounds (10-22 and 50a-65a) are shown in Table 6 and Table 7. Based on the EC50 analysis of the inhibition of coronin 1 promoter driven GFP fluorescence the (4S,7R)-configurated eutomers were identified (Structures FIG. 9A-C). This is exemplified for compounds containing two stereocenters by eutomers 11c and 13a. […] Subsequent EC50 evaluations (Table 7) were performed with compound 13a as standard for relative potency normalized to a value of 1.00 (relative potency calculated as [EC50 GFP inhibition 13a]/[EC50 GFP inhibition compound of interest]).

CMV promoter = test: EC50 analysis for CMV promoter driven RFP inhibition (non-specific activity) by flow cytometry in RBL cells; type: cell-based, cytomegalovirus; conditions: 48-65 h, read-out: EC50 RFP alteration
Experimental: as §2

RBL cells = test: Cell viability by live-dead staining (cytotoxicity), flow cytometry; type: cell-based, Rat; conditions: Rattus norvegicus, RBL, cell viability via live/dead staining, 48-65 h, read-out: EC50 Toxicity
Experimental: as §2

[4] = test system: BRD2, BRD3 and BRD4 proteins; conditions: reported TPP data; cited from earlier work
[5] = 5 μg/ml, microplate reader, DMSO = 100, read-out: RFP values (%)
[6] = 5 μg/ml, microplate reader, DMSO = 100

SMILES | activity at 5 µg/mL [1, 5] [%] | activity at 5 µg/mL (coronin 1 promoter [2]; [6]) [%] | other results
CC1=C(C(=O)OCC2CCCO2)C(c2ccsc2)C2=C(C[C@@H](c3cccs3)CC2=O)N1 (mixture of isomers) [Comp. 7, tetrahydro-2-furanylmethyl-2-methyl-5-oxo-7-(2-thienyl)-4-(3-thienyl)-1,4,5,6,7,8-hexahydro-3-quinolinecarboxylate] | 95 | 77 | –
C[C@@H]1C[C@@H]([C@H](O)CC2CC(=O)NC(=O)C2)C(=O)[C@@H](C)C1 [CHX, cycloheximide, reference compound] | – | – | activity at 5 µg/mL ([1]; read-out: RFP values (%)): 40%; activity at 5 µg/mL (coronin 1 promoter [2]): 21%
COc1ccccc1C1CC(=O)C2=C(C1)NC(C)=C(C(=O)OCC1CCCO1)C2c1cccs1 (stereo not drawn) [Comp. 1, tetrahydro-2-furanylmethyl-7-(2-methoxyphenyl)-2-methyl-5-oxo-4-(2-thienyl)-1,4,5,6,7,8-hexahydro-3-quinolinecarboxylate] | 66 | 35 | –
COC(=O)C1=C(C)NC2=C(C(=O)CC(c3ccccc3OC)C2)C1c1ccc(F)cc1 (stereo not drawn) [Comp. 2, methyl-4-(4-fluorophenyl)-7-(2-methoxyphenyl)-2-methyl-5-oxo-1,4,5,6,7,8-hexahydro-3-quinolinecarboxylate] | 81 | 52 | –
CCSCCOC(=O)C1=C(C)NC2=C(C(=O)CC(c3ccccc3OC)C2)C1c1ccsc1 (stereo not drawn) [Comp. 3, 2-(ethylthio)ethyl-7-(2-methoxyphenyl)-2-methyl-5-oxo-4-(3-thienyl)-1,4,5,6,7,8-hexahydro-3-quinolinecarboxylate] | 80 | 63 | –
COC(=O)C1=C(C)NC2=C(C(=O)CC(c3ccccc3)C2)C1c1cccc(O)c1 (stereo not drawn) [Comp. 4, methyl 4-(3-hydroxyphenyl)-2-methyl-5-oxo-7-phenyl-1,4,5,6,7,8-hexahydroquinoline-3-carboxylate] | 85 | 60 | –
COC(=O)C1=C(C)NC2=C(C(=O)CC(c3cccs3)C2)C1c1cccc(O)c1 (stereo not drawn) [Comp. 5, methyl-4-(3-hydroxyphenyl)-2-methyl-5-oxo-7-(2-thienyl)-1,4,5,6,7,8-hexahydro-3-quinolinecarboxylate] | 108 | 74 | –
CC1=C(C(=O)OCC2CCCO2)C(c2cccc([N+](=O)[O-])c2)C2=C(CC(c3cccs3)CC2=O)N1 (stereo not drawn) [Comp. 6, tetrahydro-2-furanylmethyl-2-methyl-4-(3-nitrophenyl)-5-oxo-7-(2-thienyl)-1,4,5,6,7,8-hexahydro-3-quinolinecarboxylate] | 75 | 68 | –
COC(=O)C1=C(C)NC2=C(C(=O)CC(c3ccc(OC)cc3)C2)C1c1cccc(O)c1 (stereo not drawn) [Comp. 8, methyl-4-(3-hydroxyphenyl)-7-(4-methoxyphenyl)-2-methyl-5-oxo-1,4,5,6,7,8-hexahydro-3-quinolinecarboxylate] | 97 | 87 | –
COC(=O)C1=C(C)NC2=C(C(=O)CC(c3ccccc3OC)C2)C1c1cccs1 (stereo not drawn) [Comp. 9, methyl-7-(2-methoxyphenyl)-2-methyl-5-oxo-4-(2-thienyl)-1,4,5,6,7,8-hexahydro-3-quinolinecarboxylate] | 97 | 58 | –
COc1ccccc1C1CC(=O)C2=C(C1)NC(C)=C(C(=O)OCC1CCCO1)C2c1ccccc1F (stereo not drawn) [Comp. 10, tetrahydro-2-furanylmethyl-4-(2-fluorophenyl)-7-(2-methoxyphenyl)-2-methyl-5-oxo-1,4,5,6,7,8-hexahydro-3-quinolinecarboxylate] | 110 | 48 | EC50 (coronin 1 promoter [3]): 0.8 µM; EC50 (CMV promoter): 1 µM; EC50 (RBL cells): > 7.5 µM
COc1ccccc1C1CC(=O)C2=C(C1)NC(C)=C(C(=O)OCC1CCCO1)C2c1cccc(O)c1 (stereo not drawn) [Comp. 12, tetrahydro-2-furanylmethyl-4-(3-hydroxyphenyl)-7-(2-methoxyphenyl)-2-methyl-5-oxo-1,4,5,6,7,8-hexahydro-3-quinolinecarboxylate] | 153 | 46 | EC50 (coronin 1 promoter [3]): 0.34 µM; EC50 (CMV promoter): > 1 µM; EC50 (RBL cells): > 3 µM
COC(=O)C1=C(C)NC2=C(C(=O)CC(c3ccc(Cl)cc3)C2)C1c1cccc(O)c1 (stereo not drawn) [Comp. 22, methyl 7-(4-chlorophenyl)-4-(3-hydroxyphenyl)-2-methyl-5-oxo-1,4,5,6,7,8-hexahydroquinoline-3-carboxylate] | 70 | 55 | –
COc1cc2c(cc1-c1c(C)noc1C)ncc1[nH]c(=O)n([C@H](C)c3ccccn3)c12 [IBET-151] | – | – | thermal stabilization of BRD2, BRD3 and BRD4 proteins [4]: thermal stabilization
CC(=O)Nc1c(F)cc(C(=O)N[C@H]2CC[C@H](O)CC2)cc1O[C@@H](C)c1ccccc1 [IBET-BD2] | – | – | thermal stabilization of BRD2, BRD3 and BRD4 proteins [4]: thermal stabilization
Cc1sc2c(c1C)C(c1ccc(Cl)cc1)=N[C@@H](CC(=O)OC(C)(C)C)c1nnc(C)n1-2 [JQ1] | – | – | thermal stabilization of BRD2, BRD3 and BRD4 proteins [4]: thermal stabilization
COc1cc(OC)c2c(=O)[nH]c(-c3cc(C)c(OCCO)c(C)c3)nc2c1 [RVX-208] | – | – | thermal stabilization of BRD2, BRD3 and BRD4 proteins [4]: thermal stabilization
COc1ccccc1C1CC(=O)C2=C(C1)NC(C)=C(C(=O)OC1CCOCC1)C2c1cccc(O)c1 (stereo not drawn) [compound 13, tetrahydro-2H-pyran-4-yl-4-(3-hydroxyphenyl)-7-(2-methoxyphenyl)-2-methyl-5-oxo-1,4,5,6,7,8-hexahydro-3-quinolinecarboxylate] | – | – | EC50 (coronin 1 promoter [3]): 0.12 µM; EC50 (CMV promoter): > 2.5 µM; EC50 (RBL cells): > 2.5 µM
COc1ccccc1C1CC(=O)C2=C(C1)NC(C)=C(C(=O)OCC1CCOCC1)C2c1cccc(O)c1 (stereo not drawn) [compound 18, (tetrahydro-2H-pyran-4-yl)methyl 4-(3-hydroxyphenyl)-7-(2-methoxyphenyl)-2-methyl-5-oxo-1,4,5,6,7,8-hexahydroquinoline-3-carboxylate] | – | – | EC50 (coronin 1 promoter [3]): 0.2 µM; EC50 (CMV promoter): > 2.5 µM; EC50 (RBL cells): > 2.5 µM
